US20230399321A1, “CRYSTALLINE FORM II OF MELANOCORTIN RECEPTOR AGONIST COMPOUND AND PREPARATION METHOD THEREFOR” (LG CHEM, LTD., priority 2020, published 2023)
Where a name gives a salt, the structure may show the parent alone.

What was measured:
[1] = Thermogravimetric analysis (TGA); type: physicochemical; details: heated from 30° C. to 350° C. at 10° C./min; no weight loss in the DSC endothermic section
Procedure: The TGA was measured using Mettler Toledo TGA/DSC 1 module. About 4-8 mg of the sample is weighed and put into a 100 μL Al crucible (flat-bottomed aluminum crucibles). Then, TGA measurement is performed while the sample is heated from 30° C. to 350° C. at a rate of 10° C./min. During the measurement, nitrogen gas is supplied to the inside of the instrument at a rate of 80 mL/min to prevent the inflow of oxygen and other gases. Data collection and evaluation were performed using the software STARe.

[2] = Stability assessment by HPLC after storage; type: physicochemical; details: for HPLC analysis result, Open ACC: open state, accelerated condition (40° C., 75% RH); for HPLC analysis result, Open ACC / HPLC analysis result, Closed STR: in % (unit assumed); for HPLC analysis result, Closed STR: sealed state, harsh condition, oven at 80° C.
Procedure: About 10-30 mg of the sample was stored for 4 weeks in an open state under the accelerated condition (40° C., 75% RH) or in a sealed state under the harsh condition in an oven at 80° C.

CC(C)C(=O)N([C@H]1C[C@@H](C(=O)N2CCOCC2)N(C(=O)[C@@H]2CN(C(C)(C)C)C[C@H]2c2ccc(Cl)cc2)C1)[C@H]1CC[C@@H](C)CC1 [Example 1, N-((3S,5S)-1-((3S,4R)-1-(tert-butyl)-4-(4-chlorophenyl)pyrrolidine-3-carbonyl)-5-(morpholine-4-carbonyl)pyrrolidin-3-yl)-N-((1s,4R)-4-methylcyclohexyl) isobutyramide hydrochloride]
thermal stability [1]: thermally stable crystalline form | chemical stability to heat and humidity ([2]; 4 weeks under the accelerated condition (40° C., 75% RH) and the harsh condition (80° C.)): showed chemical stability for 4 weeks | HPLC analysis result, Open ACC ([2]; Week 2): 97.67 | HPLC analysis result, Closed STR ([2]; Week 2): 97.73 | HPLC analysis result, Open ACC ([2]; Week 4): 97.82 | HPLC analysis result, Closed STR ([2]; Week 4): 97.94 | HPLC analysis result, Initial ([2]; initial, before storage): 97.7%
